Values quoted from earlier work in article PMC8982769 (Open Forum Infectious Diseases, 2022).

Columns and labels:
[1] = within 6 to 12 hours after IV administration
[2] = up to 24 grams of parenteral HPβCD daily for 15 days
[3] = humans
[4] = tested on: enterococci carrying vanA, vanB, and vanC genes; conditions: in vitro
VRE = conditions: within 48 to 72 hours

dose recovered in the urine [1] | Elimination half-life [3] | MIC90 [4] | Substance | side effects [2] | log kill (VRE)
100% | 1.7 to 1.9 h |  | 2-hydroxypropyl-β-cyclodextrin [HPβCD] | no side effects were observed | 
 |  | ≤ 0.5 µg/mL | Oritavancin diphosphate |  | > 3 log
